This note sets out measurements from patent publication US20040235083A1, “Screening method” (priority 2001, published 2004).

For one data set, the system named is osteoblasts. The data set can be described thus: Alkaline phosphatase induction in the test using osteoblasts. It is filed as cell-based. The conditions noted are these: concentration of 1 μM.
In the next data set the target is T1, NQO2 (Mus musculus, UniProt Q9JI75).
T1 construct: made in house; host or cells: E. coli DH5α carrying pGEX-4T-2 with the insert
T1 sequence (Q9JI75 1-231): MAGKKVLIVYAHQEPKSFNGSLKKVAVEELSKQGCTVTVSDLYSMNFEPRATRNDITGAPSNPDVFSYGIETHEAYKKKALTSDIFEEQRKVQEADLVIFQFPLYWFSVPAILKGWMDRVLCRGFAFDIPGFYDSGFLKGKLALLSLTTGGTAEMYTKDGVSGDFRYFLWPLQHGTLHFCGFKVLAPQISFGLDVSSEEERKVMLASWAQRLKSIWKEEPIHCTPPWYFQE
Nature of the data set: Effect of compound on NQO2 activity (reduction of methyl red by GST-NQO2 fusion protein, absorbance at 436 nm). It is filed as biochemical. The conditions noted are these: 1 μM compound; 10 nM fusion protein, 30 μM methyl red, 25° C., pH 7.4; read-out: inhibitory action on NQO2 activity. The method, then:
Entire RNA was prepared from a mouse osteoblastic cell line, MC3T3-E1, and cDNA was synthesized by using the oligo-dT primer. PCR was performed by using the cDNA as a template and two synthetic DNAs having the nucleotide sequences of SEQ ID NO: 5 and SEQ ID NO: 6, respectively, as primers to add the sequences recognized-by restriction enzymes. The resulting DNA fragment was cleaved with restriction enzymes BamHI and SalI and inserted into the BamHI-SalI cleavage site of plasmid pGEX-4T-2 (Amersham Pharmacia Biotech). The nucleotide sequence was confirmed, and then E. coli DH5α (GIBCO BRL) carrying the plasmid was cultured in an LB medium. According to the protocol recommended by Amersham Pharmacia Biotech, expression was induced by IPTG, and then purification was performed by using Glutathione-Sepharose (Amersham Pharmacia Biotech). From 2 L of the LB medium, 3.0 mg of the fusion protein was obtained.
Compound A having an osteogenesis-promoting action was examined for effects on the NQO2 activity by using the fusion protein obtained in the above (1). […] The decrease in absorbance at 436 nm was monitored to detect the reduction of methyl red. […]

The subject of data set [1] is osteoblastic cell line MC3T3-E1. The data set can be described thus: Alkaline phosphatase activity in MC3T3-E1 after introduction of antisense or sense DNA to NQO2 mRNA. It is filed as cell-based, mouse. The conditions noted are these: MC3T3-E1, S-oligo DNA with FuGene 6, four days incubation, corrected for protein. The method, then:
The alkaline phosphatase activity is represented by a relative activity (%) by taking a control value (with no DNA) as 100.
The mouse osteoblastic cell line, MC3T3-E1, in a MEMα medium containing 10% fetal calf serum and 100 μg/ml of kanamycin was inoculated on a 48-well plate at 1.4×10^4 cells per well and cultured overnight. To 100 μl of a serum-free αMEM were added 3 μl of FuGene 6 (Roche), 1.5 μg of the S-oligo DNA having the sequence of SEQ ID NO: 7 (antisense sequence to mouse NQO2 mRNA) and 1.5 μg of the S-oligo DNA having the sequence of SEQ ID NO: 8 (sense sequence to the mRNA) and the mixture was allowed to stand at room temperature for 15 minutes. To each well was added 22 μl of the mixture and incubated under 5% CO2 at 37° C. overnight. Thereafter, ascorbic acid was added at a final concentration of 50 μg/ml, and 10 mM of β-glycerophosphate was added. Incubation was performed for four days, and the activity of the alkaline phosphatase was measured according to Notoya et al. (Journal of Bone and Mineral Research 9: 395-400, 1994). The concentration of the protein in each cell homogenate was measured, and the activity values were corrected and shown in FIG. 1 by taking the activity obtained by the same procedure without addition of the DNA as 100%.

On to `O=C1NC(=O)C(Cc2ccc(NC(=O)C3=CC(=O)C4C(O)=CC=CC4O3)cc2)S1` (stereo not shown) [Compound A], for which the alkaline phosphatase-inducing action entry with osteoblasts is on record as “alkaline phosphatase-inducing action”. Besides, the inhibition at 1 µM on NQO2 was 38%.
Take “antisense DNA: S-oligo DNA having the sequence of SEQ ID NO: 7 (antisense sequence to mouse NQO2 mRNA) (antisense CTGCCATGTTGGAGGAGATA; DNA, all phosphorothioate, methylation of C not given here)”: the “alkaline phosphatase activity relative to cells without introduction of DNA (100%)” value in data set [1] was “significantly higher”.
The same measure, in the same setting: in the case of “sense sequence DNA: S-oligo DNA having the sequence of SEQ ID NO: 8 (sense sequence to the mRNA) (sense TATCTCCTCCAACATGGCAG; DNA, all phosphorothioate, methylation of C not given here) [reference compound]” it was “no difference was observed”.
